# System: HCV replicon cells
# Test: Cell-based HCV replicon assay (replicon RNA level by real time PCR, Taqman)
# Details: Hepatitis C virus, 72 h, harvested on day 3, EC90 = concentration necessary to achieve ΔCT=3.2 over the baseline, read-out: EC90 Range
# Experimental: Assays Cell-Based HCV Replicon Assay
# To measure cell-based anti-HCV activity of the compounds of the present invention, replicon cells were seeded at 5000 cells/well in 96-well collagen I-coated Nunc plates in the presence of the compound of the invention. […] The final concentration of DMSO was 0.5%, fetal bovine serum was 10%, in the assay media. Cells were harvested on day 3 by the addition of 1× cell lysis buffer (Ambion cat #8721). The replicon RNA level was measured using real time PCR (Taqman assay). The amplicon was located in 5B. […] GAPDH RNA was used as endogenous control and was amplified in the same reaction as NS5B (multiplex PCR) using primers and VIC-labeled probe recommended by the manufacturer (PE Applied Biosystem). The real-time RT-PCR reactions were run on ABI PRISM 7900HT Sequence Detection System using the following program: 48° C. for 30 min, 95° C. for 10 min, 40 cycles of 95° C. for 15 sec, 60° C. for 1 min. The ACT values (CT5B-CTGAPDH) were plotted against the concentration of test compound and fitted to the sigmoid dose-response model using GraphPad PRISM software. EC50 was defined as the concentration of inhibitor necessary to achieve ΔCT=1 over the projected baseline; EC90 the concentration necessary to achieve ΔCT=3.2 over the baseline. Alternatively, to quantitate the absolute amount of replicon RNA, a standard curve was established by including serially diluted T7 transcripts of replicon RNA in the Taqman assay. All Taqman reagents were from PE Applied Biosystems. Such an assay procedure was described in detail in e.g. Malcolm et al., Antimicrobial Agents and Chemotherapy 50: 1013-1020 (2006).
row,Structure (SMILES),EC90
1,CSc1ccc(C#Cc2c(Cl)nc(N)nc2N[C@@H]2C[C@H](CO)[C@@H](O)[C@H]2O)c(C)n1 [Compound 64],≤ 500 nM
2,COc1ccc(C#Cc2c(C)nc(NCCCO)nc2N[C@@H]2C[C@H](CO)[C@H]3OC(C)(C)O[C@H]32)cn1 [Compound 83],500 to 5000 nM
3,COc1ccc(C#Cc2c(C)nc(NCC(F)(F)F)nc2N[C@@H]2C[C@H](CO)[C@@H](O)[C@H]2O)cn1 [Compound 90],500 to 5000 nM
4,COC(=O)c1ncccc1C#Cc1c(Cl)nc(N(C)C)nc1N[C@@H]1C[C@H](CO)[C@@H](O)[C@H]1O [Compound 62],500 to 5000 nM
5,CCOc1ccc(C#Cc2c(C)nc(N)nc2N[C@@H]2C[C@H](CO)[C@@H](O)[C@H]2O)cn1 [Compound 1],≤ 500 nM
6,CCOCCNc1nc(C)c(C#Cc2ccsc2)c(N[C@@H]2C[C@H](CO)[C@@H](O)[C@H]2O)n1 [Compound 103],≤ 500 nM
7,COCCNc1nc(Cl)c(C#Cc2ccc(OCC(F)(F)F)nc2C)c(N[C@@H]2C[C@H](CO)[C@@H](O)[C@H]2O)n1 [Compound 69],500 to 5000 nM
8,Cc1ccsc1C#Cc1c(Cl)nc(N)nc1N[C@@H]1C[C@H](CO)[C@@H](O)[C@H]1O [Compound 7],500 to 5000 nM
9,COCCNc1nc(C)c(C#Cc2ccc(OC)nc2)c(N[C@@H]2C[C@H](CO)[C@@H](O)[C@H]2O)n1 [Compound 77],≤ 500 nM
10,CN(C)c1nc(Cl)c(C#Cc2cccs2)c(N[C@@H]2C[C@H](CO)[C@@H](O)[C@H]2O)n1 [Compound 48],> 5000 nM
11,COc1ccc(C#Cc2c(C)nc(NCCCO)nc2N[C@@H]2C[C@H](CO)[C@@H](O)[C@H]2O)cn1 [Compound 78],≤ 500 nM
12,CCOc1ccc(C#Cc2c(Cl)nc(NCCOC)nc2N[C@@H]2C[C@H](CO)[C@@H](O)[C@H]2O)c(C)n1 [Compound 71],≤ 500 nM
13,COC[C@H]1C[C@@H](Nc2nc(N)nc(Cl)c2C#Cc2ccsc2)[C@H](O)[C@@H]1O [Compound 61],500 to 5000 nM
14,CCOc1ccc(C#Cc2c(Cl)nc(NCC(F)(F)F)nc2N[C@@H]2C[C@H](CO)[C@@H](O)[C@H]2O)cn1 [Compound 74],≤ 500 nM
15,CNc1nc(Cl)c(C#Cc2ccccc2C(=O)OC(C)C)c(N[C@@H]2C[C@H](CO)[C@@H](O)[C@H]2O)n1 [Compound 50],500 to 5000 nM
16,CNc1nc(Cl)c(C#Cc2ccc(OC)nc2C)c(N[C@@H]2C[C@H](CO)[C@@H](O)[C@H]2O)n1 [Compound 65],≤ 500 nM
17,Cc1nc(NCC2CC2)nc(N[C@@H]2C[C@H](CO)[C@@H](O)[C@H]2O)c1C#Cc1ccc(-c2ccccn2)s1 [Compound 104],500 to 5000 nM
18,Nc1nc(Cl)c(C#Cc2ccccc2Cl)c(N[C@@H]2C[C@H](CO)[C@@H](O)[C@H]2O)n1 [Compound 60],500 to 5000 nM
19,CSCCNc1nc(C)c(C#Cc2ccc(-c3ccccn3)s2)c(N[C@@H]2C[C@H](CO)[C@@H](O)[C@H]2O)n1 [Compound 96],≤ 500 nM
20,Cn1cncc1C#Cc1c(Cl)nc(N)nc1N[C@@H]1C[C@H](CO)[C@@H](O)[C@H]1O [Compound 30],> 5000 nM
21,CCOc1ccc(C#Cc2c(Cl)nc(NCC(F)(F)F)nc2N[C@@H]2C[C@H](CO)[C@@H](O)[C@H]2O)c(C)n1 [Compound 72],≤ 500 nM
22,COCCNc1nc(C)c(C#Cc2ccc(OC)nc2OC)c(N[C@@H]2C[C@H](CO)[C@@H](O)[C@H]2O)n1 [Compound 94],≤ 500 nM
23,Cc1ccc(C#Cc2c(Cl)nc(N)nc2N[C@@H]2C[C@H](CO)[C@@H](O)[C@H]2O)c(C)n1 [Compound 16],≤ 500 nM
24,Cc1nc(-c2ccccc2)c(C#Cc2c(Cl)nc(NCC(F)(F)F)nc2N[C@@H]2C[C@H](CO)[C@@H](O)[C@H]2O)s1 [Compound 101],500 to 5000 nM

row,Structure (SMILES),EC90
1,CCNc1nc(C)c(C#Cc2ccc(OCC)nc2)c(N[C@@H]2C[C@H](CO)[C@@H](O)[C@H]2O)n1 [Compound 88],≤ 500 nM
2,COc1ccc(C#Cc2c(Cl)nc(NCC(F)(F)F)nc2N[C@@H]2C[C@H](CO)[C@@H](O)[C@H]2O)cn1 [Compound 76],≤ 500 nM
3,Nc1nc(Cl)c(C#Cc2ccc(-c3ccccc3)cc2)c(N[C@@H]2C[C@H](CO)[C@@H](O)[C@H]2O)n1 [Compound 44],500 to 5000 nM
4,Nc1nc(Cl)c(C#Cc2ncc(CO)s2)c(N[C@@H]2C[C@H](CO)[C@@H](O)[C@H]2O)n1 [Compound 47],> 5000 nM
5,COc1ccc(C#Cc2c(C)nc(NCC3CC3)nc2N[C@@H]2C[C@H](CO)[C@@H](O)[C@H]2O)c(OC)n1 [Compound 95],≤ 500 nM
6,COc1ccc(C#Cc2c(Cl)nc(N(C)C)nc2N[C@@H]2C[C@H](CO)[C@@H](O)[C@H]2O)cn1 [Compound 24],> 5000 nM
7,Nc1nc(Cl)c(C#Cc2ccc(Cl)cc2)c(N[C@@H]2C[C@H](CO)[C@@H](O)[C@H]2O)n1 [Compound 27],500 to 5000 nM
8,CCOc1ccc(C#Cc2c(C)nc(NCC(F)(F)F)nc2N[C@@H]2C[C@H](CO)[C@@H](O)[C@H]2O)cn1 [Compound 86],≤ 500 nM
9,Cc1nc(-c2ccccc2)c(C#Cc2c(Cl)nc(N)nc2N[C@@H]2C[C@H](CO)[C@@H](O)[C@H]2O)s1 [Compound 35],≤ 500 nM
10,CNc1nc(Cl)c(C#Cc2ccc(SC)nc2C)c(N[C@@H]2C[C@H](CO)[C@@H](O)[C@H]2O)n1 [Compound 66],≤ 500 nM
11,COc1ccc(C#Cc2c(Cl)nc(NCC(F)(F)F)nc2N[C@@H]2C[C@H](CO)[C@@H](O)[C@H]2O)c(C)n1 [Compound 68],≤ 500 nM
12,Nc1nc(Cl)c(C#Cc2cccnc2Cl)c(N[C@@H]2C[C@H](CO)[C@@H](O)[C@H]2O)n1 [Compound 10],500 to 5000 nM
13,CCOc1ccc(C#Cc2c(Cl)nc(N)nc2N[C@@H]2C[C@H](CO)[C@@H](O)[C@H]2O)c(C)n1 [Compound 2],≤ 500 nM
14,COc1ccc(C#Cc2c(Cl)nc(N)nc2N[C@@H]2C[C@H](CO)[C@@H](O)[C@H]2O)c(C)n1 [Compound 3],≤ 500 nM
15,Nc1nc(Cl)c(C#Cc2cncs2)c(N[C@@H]2C[C@H](CO)[C@@H](O)[C@H]2O)n1 [Compound 37],500 to 5000 nM
16,CCOc1ccc(C#Cc2c(Cl)nc(N(C)C)nc2N[C@@H]2C[C@H](CO)[C@@H](O)[C@H]2O)cn1 [Compound 23],> 5000 nM
17,COc1ncccc1C#Cc1c(Cl)nc(N)nc1N[C@@H]1C[C@H](CO)[C@@H](O)[C@H]1O [Compound 12],500 to 5000 nM
18,CCc1nc(C)ccc1C#Cc1c(Cl)nc(N)nc1N[C@@H]1C[C@H](CO)[C@@H](O)[C@H]1O [Compound 17],500 to 5000 nM
19,Cc1csc(C#Cc2c(Cl)nc(N)nc2N[C@@H]2C[C@H](CO)[C@@H](O)[C@H]2O)n1 [Compound 46],> 5000 nM
20,Nc1nc(Cl)c(C#Cc2ccc(Cl)nc2)c(N[C@@H]2C[C@H](CO)[C@@H](O)[C@H]2O)n1 [Compound 9],> 5000 nM
21,"COc1ccc(C#Cc2c(Cl)nc(N)nc2N[C@@H]2C[C@H](CO)[C@@H](O)[C@H]2O)cn1 [Compound 20, (1R,2S,3R,5R)-3-[[2-Amino-6-chloro-5-[2-(2-methoxypyridin-5-yl)ethynyl]-4-pyrimidinyl]amino]-5-(hydroxymethyl)-1,2-cyclopentanediol]",≤ 500 nM
22,Cc1nc(NCCCO)nc(N[C@@H]2C[C@H](CO)[C@H]3OC(C)(C)O[C@H]32)c1C#Cc1cccs1 [Compound 100],500 to 5000 nM
23,COCCNc1nc(C)c(C#Cc2ccc(-c3ccccn3)s2)c(N[C@@H]2C[C@H](CO)[C@@H](O)[C@H]2O)n1 [Compound 105],500 to 5000 nM
24,CCOc1ccc(C#Cc2c(C)nc(NCCF)nc2N[C@@H]2C[C@H](CO)[C@@H](O)[C@H]2O)cn1 [Compound 89],500 to 5000 nM

# Reference: patent publication US8541434B2, “Ethynyl-substituted pyridine and pyrimidine derivatives and their use in treating viral infections” (Merck Sharp & Dohme Corp., priority 2008, dated 2013)
